In PubChem BioAssay (NCI):
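Test compounds were applied to cells in 96-well plates for 48 hours at 5 doses. Abbreviation: GI50, concentration required for 50% inhibition of growth. The concentration for full growth arrest is given as TGI.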

Tests used:
Assay in all cases: inhibition of tumour cell growth, NCI panel, 48 h
786-0 renal = tested on: 786-0 renal
A498 renal = tested on: A498 renal
A549 NSCLC = tested on: A549 NSCLC
ACHN renal = tested on: ACHN renal
BT-549 breast = tested on: BT-549 breast
CAKI-1 renal = tested on: CAKI-1 renal
CCRF-CEM leukemia = tested on: CCRF-CEM leukemia
COLO 205 colon = tested on: COLO 205 colon
DU-145 prostate = tested on: DU-145 prostate
EKVX NSCLC = tested on: EKVX NSCLC
HCC-2998 colon = tested on: HCC-2998 colon
HCT-116 colon = tested on: HCT-116 colon
HCT-15 colon = tested on: HCT-15 colon
HL-60(TB) leukemia = tested on: HL-60(TB) leukemia
HOP-62 NSCLC = tested on: HOP-62 NSCLC
HOP-92 NSCLC = tested on: HOP-92 NSCLC
HS 578T breast = tested on: HS 578T breast
HT29 colon = tested on: HT29 colon
IGROV1 ovarian = tested on: IGROV1 ovarian
K-562 leukemia = tested on: K-562 leukemia
KM12 colon = tested on: KM12 colon
LOX IMVI melanoma = tested on: LOX IMVI melanoma
M14 melanoma = tested on: M14 melanoma
MALME-3M melanoma = tested on: MALME-3M melanoma
MCF7 breast = tested on: MCF7 breast
MDA-MB-231 breast = tested on: MDA-MB-231 breast
MDA-MB-435 = tested on: MDA-MB-435
MDA-MB-468 breast = tested on: MDA-MB-468 breast
MOLT-4 leukemia = tested on: MOLT-4 leukemia
NCI-H226 lung = tested on: NCI-H226 lung
NCI-H23 lung = tested on: NCI-H23 lung
NCI-H460 lung = tested on: NCI-H460 lung
NCI-H522 lung = tested on: NCI-H522 lung
NCI/ADR-RES ovarian = tested on: NCI/ADR-RES ovarian
OVCAR-3 ovarian = tested on: OVCAR-3 ovarian
OVCAR-4 ovarian = tested on: OVCAR-4 ovarian
OVCAR-5 ovarian = tested on: OVCAR-5 ovarian
OVCAR-8 ovarian = tested on: OVCAR-8 ovarian
PC-3 prostate = tested on: PC-3 prostate
RPMI-8226 leukemia = tested on: RPMI-8226 leukemia
RXF 393 renal = tested on: RXF 393 renal
SF-268 CNS = tested on: SF-268 CNS
SF-295 CNS = tested on: SF-295 CNS
SF-539 CNS = tested on: SF-539 CNS
SK-MEL-2 melanoma = tested on: SK-MEL-2 melanoma
SK-MEL-28 melanoma = tested on: SK-MEL-28 melanoma
SK-MEL-5 melanoma = tested on: SK-MEL-5 melanoma
SK-OV-3 ovarian = tested on: SK-OV-3 ovarian
SN12C renal = tested on: SN12C renal
SNB-19 CNS = tested on: SNB-19 CNS
SNB-75 CNS = tested on: SNB-75 CNS
SR leukemia = tested on: SR leukemia
SW-620 colon = tested on: SW-620 colon
T-47D breast = tested on: T-47D breast
TK-10 renal = tested on: TK-10 renal
U251 CNS = tested on: U251 CNS
UACC-257 melanoma = tested on: UACC-257 melanoma
UACC-62 melanoma = tested on: UACC-62 melanoma
UO-31 renal = tested on: UO-31 renal

CC[C@]12C=CCN3CC[C@]4(C(=C(C(=O)OC)C1)Nc1cc(OC)c([C@@H]5[C@H]6O[C@H]6[C@@]6(CC)CC(C(=O)OC)=C7Nc8cc(O)ccc8[C@@]78CCN5[C@@H]68)cc14)[C@@H]32
GI50 (786-0 renal): 5.71 µM
TGI (786-0 renal): 49.4 µM
GI50 (A498 renal): 13.1 µM
TGI (A498 renal): 40 µM
GI50 (A549 NSCLC): 4.56 µM
TGI (A549 NSCLC): > 56.5 µM
GI50 (ACHN renal): 6.67 µM
TGI (ACHN renal): 20.3 µM
GI50 (BT-549 breast): 6.27 µM
TGI (BT-549 breast): 18.9 µM
GI50 (CAKI-1 renal): 4 µM
TGI (CAKI-1 renal): 50.1 µM
GI50 (CCRF-CEM leukemia): 2.19 µM
TGI (CCRF-CEM leukemia): > 56.5 µM
GI50 (COLO 205 colon): 10.4 µM
TGI (COLO 205 colon): 24 µM
GI50 (DU-145 prostate): 12.3 µM
TGI (DU-145 prostate): 50 µM
GI50 (EKVX NSCLC): 3.7 µM
TGI (EKVX NSCLC): 31.7 µM
GI50 (HCC-2998 colon): 3.32 µM
TGI (HCC-2998 colon): 10.9 µM
GI50 (HCT-116 colon): 2.17 µM
TGI (HCT-116 colon): 12.6 µM
GI50 (HCT-15 colon): 2.91 µM
TGI (HCT-15 colon): 11.4 µM
GI50 (HL-60(TB) leukemia): 1.78 µM
TGI (HL-60(TB) leukemia): 8.34 µM
GI50 (HOP-62 NSCLC): 12.9 µM
TGI (HOP-62 NSCLC): 27.5 µM
GI50 (HOP-92 NSCLC): 5.99 µM
TGI (HOP-92 NSCLC): 14.3 µM
GI50 (HS 578T breast): 11.7 µM
TGI (HS 578T breast): > 56.5 µM
GI50 (HT29 colon): 6.12 µM
TGI (HT29 colon): 18.9 µM
GI50 (IGROV1 ovarian): 8.95 µM
TGI (IGROV1 ovarian): 25 µM
GI50 (K-562 leukemia): 1.91 µM
TGI (K-562 leukemia): 12.4 µM
GI50 (KM12 colon): 3.27 µM
TGI (KM12 colon): 14.9 µM
GI50 (LOX IMVI melanoma): 3.11 µM
TGI (LOX IMVI melanoma): 10.5 µM
GI50 (M14 melanoma): 2.91 µM
TGI (M14 melanoma): 16.3 µM
GI50 (MALME-3M melanoma): 5.97 µM
TGI (MALME-3M melanoma): 12.8 µM
GI50 (MCF7 breast): 1.73 µM
TGI (MCF7 breast): 11.6 µM
GI50 (MDA-MB-231 breast): 6.8 µM
TGI (MDA-MB-231 breast): 13.9 µM
GI50 (MDA-MB-435): 3.71 µM
TGI (MDA-MB-435): 14.2 µM
GI50 (MDA-MB-468 breast): 1.11 µM
TGI (MDA-MB-468 breast): 7.28 µM
GI50 (MOLT-4 leukemia): 1.34 µM
TGI (MOLT-4 leukemia): 6.82 µM
GI50 (NCI-H226 lung): 5.95 µM
TGI (NCI-H226 lung): 15 µM
GI50 (NCI-H23 lung): 6.13 µM
TGI (NCI-H23 lung): 18.8 µM
GI50 (NCI-H460 lung): 2.87 µM
TGI (NCI-H460 lung): 10.9 µM
GI50 (NCI-H522 lung): 2.41 µM
TGI (NCI-H522 lung): 11.6 µM
GI50 (NCI/ADR-RES ovarian): 7.86 µM
TGI (NCI/ADR-RES ovarian): 26.8 µM
GI50 (OVCAR-3 ovarian): 3.92 µM
TGI (OVCAR-3 ovarian): 12.1 µM
GI50 (OVCAR-4 ovarian): 5.68 µM
TGI (OVCAR-4 ovarian): > 56.5 µM
GI50 (OVCAR-5 ovarian): 10.5 µM
TGI (OVCAR-5 ovarian): 27.5 µM
GI50 (OVCAR-8 ovarian): 12.4 µM
TGI (OVCAR-8 ovarian): > 56.5 µM
GI50 (PC-3 prostate): 1.99 µM
TGI (PC-3 prostate): 16.7 µM
GI50 (RPMI-8226 leukemia): 1.53 µM
TGI (RPMI-8226 leukemia): > 56.5 µM
GI50 (RXF 393 renal): 2.6 µM
TGI (RXF 393 renal): 12.5 µM
GI50 (SF-268 CNS): 5.6 µM
TGI (SF-268 CNS): 43.5 µM
GI50 (SF-295 CNS): 5 µM
TGI (SF-295 CNS): 15.3 µM
GI50 (SF-539 CNS): 10.8 µM
TGI (SF-539 CNS): 27.4 µM
GI50 (SK-MEL-2 melanoma): 8.75 µM
TGI (SK-MEL-2 melanoma): 19.8 µM
GI50 (SK-MEL-28 melanoma): 7.57 µM
TGI (SK-MEL-28 melanoma): 24.5 µM
GI50 (SK-MEL-5 melanoma): 3.66 µM
TGI (SK-MEL-5 melanoma): 11.4 µM
GI50 (SK-OV-3 ovarian): 17.7 µM
TGI (SK-OV-3 ovarian): > 56.5 µM
GI50 (SN12C renal): 6.01 µM
TGI (SN12C renal): 15.3 µM
GI50 (SNB-19 CNS): 14.6 µM
TGI (SNB-19 CNS): > 56.5 µM
GI50 (SNB-75 CNS): 2.95 µM
TGI (SNB-75 CNS): > 56.5 µM
GI50 (SR leukemia): 2.18 µM
TGI (SR leukemia): 21.7 µM
GI50 (SW-620 colon): 5.67 µM
TGI (SW-620 colon): 14.6 µM
GI50 (T-47D breast): 1.9 µM
TGI (T-47D breast): 23.8 µM
GI50 (TK-10 renal): 21.2 µM
TGI (TK-10 renal): > 56.5 µM
GI50 (U251 CNS): 4.33 µM
TGI (U251 CNS): 14.6 µM
GI50 (UACC-257 melanoma): 4.3 µM
TGI (UACC-257 melanoma): 15.5 µM
GI50 (UACC-62 melanoma): 3.27 µM
TGI (UACC-62 melanoma): 11.6 µM
GI50 (UO-31 renal): 4.31 µM
TGI (UO-31 renal): 13.8 µM
